# How the values were obtained:
# [1] = target: T1, Avi-KRAS G12R (1-169) GppNHp/RAF1 RBD-3xFLAG (52-151) (Homo sapiens, UniProt P01116, G12R); experiment: Raf1-KRAS G12R-GppNHP disruption HTRF assay (Biological Example 1); type: binding
# T1 construct: Avi-KRAS G12R (1-169)
# In short: (§1)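 Using HTRF, the loss of KRAS–effector RAF1 complex was quantified in 50 mM Tris pH 7.5 buffer with 100 mM NaCl and 0.1% BSA. The protein step and reagent step ran 1 h each at room temperature. Activity normalized with DMSO taken as 100%.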
# [2] = target: T2, Avi-KRAS G12V (1-169) GppNHp/RAF1 RBD-3xFLAG (52-151) (Homo sapiens, UniProt P01116, G12V); experiment: Raf1-KRAS G12V-GppNHP disruption HTRF assay (Biological Example 1); type: binding
# T2 construct: Avi-KRAS G12V (1-169)
# In short: as §1
# GP2d cells (KRAS G12D) = experiment: Cell-based pERK HTRF assay in GP2d cell (Biological Example 2); conditions: GP2d (KRAS G12D) cells, pERK HTRF
# In short: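 Phospho-ERK is measured by HTRF following a 60 min compound exposure at 0.25% DMSO, with a 9-point half-log curve topping at 1 μM or 100 nM.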
# SW620 cells (KRAS G12V) = experiment: Cell-based pERK HTRF assay in SW620 cell (Biological Example 4); conditions: pERK HTRF
# In short: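 Read-out: HTRF pERK signal (excitation 320 nm, emission 615 nm) from lysates of SW620 cells after 4 h compound exposure. Dose range was 9 points, half-log steps from 1 μM, in 0.25% DMSO; antibody incubation ran 4–24 h at room temperature.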
# [3] = target: T3, Avi-KRAS WT (1-169) GppNHp/RAF1 RBD-3xFLAG (52-151) (Homo sapiens, UniProt P01116); experiment: Raf1-KRAS WT-GppNHP disruption HTRF assay (Biological Example 1); type: binding
# T3 construct: Avi-KRAS WT (1-169)
# In short: as §1
# [4] = target: T4, Avi-KRAS G12D (1-169) GppNHp/RAF1 RBD-3xFLAG (52-151) (Homo sapiens, UniProt P01116, G12D); experiment: Raf1-KRAS G12D-GppNHP disruption HTRF assay (Biological Example 1); type: binding
# T4 construct: Avi-KRAS G12D (1-169)
# In short: as §1
# [5] = KRAS G12R, GppNHp-loaded, class symbols
# [6] = KRAS G12V, GppNHp-loaded, class symbols
# [7] = Homo sapiens, SW-620, SW620 (KRAS G12V) cells, class symbols
# [8] = KRAS WT, GppNHp-loaded, class symbols
# [9] = KRAS G12D, GppNHp-loaded, class symbols
# [10] = KRAS G12R, GppNHp-loaded, Table 11
# [11] = KRAS G12V, GppNHp-loaded, Table 11
# [12] = KRAS WT, GppNHp-loaded, Table 11
# [13] = KRAS G12D, GppNHp-loaded, Table 11
# [14] = Homo sapiens, SW-620, SW620 (KRAS G12V) cells
# T2 sequence (P01116 1-169 isoform P01116-2 G12V): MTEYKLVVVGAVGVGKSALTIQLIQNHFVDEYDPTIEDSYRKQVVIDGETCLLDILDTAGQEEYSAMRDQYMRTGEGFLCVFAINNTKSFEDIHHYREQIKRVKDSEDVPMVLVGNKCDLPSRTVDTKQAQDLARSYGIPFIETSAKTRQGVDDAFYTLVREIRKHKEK
# T4 sequence (P01116 1-169 isoform P01116-2 G12D): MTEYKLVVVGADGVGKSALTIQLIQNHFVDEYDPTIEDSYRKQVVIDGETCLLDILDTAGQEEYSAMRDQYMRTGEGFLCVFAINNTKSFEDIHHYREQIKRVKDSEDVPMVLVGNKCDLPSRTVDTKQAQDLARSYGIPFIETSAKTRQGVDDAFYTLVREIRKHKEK
# T3 sequence (P01116 1-169 isoform P01116-2): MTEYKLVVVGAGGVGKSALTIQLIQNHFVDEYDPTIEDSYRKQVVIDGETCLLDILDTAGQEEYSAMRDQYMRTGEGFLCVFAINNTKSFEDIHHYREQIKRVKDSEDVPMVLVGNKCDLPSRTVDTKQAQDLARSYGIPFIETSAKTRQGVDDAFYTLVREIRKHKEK
# T1 sequence (P01116 1-169 isoform P01116-2 G12R): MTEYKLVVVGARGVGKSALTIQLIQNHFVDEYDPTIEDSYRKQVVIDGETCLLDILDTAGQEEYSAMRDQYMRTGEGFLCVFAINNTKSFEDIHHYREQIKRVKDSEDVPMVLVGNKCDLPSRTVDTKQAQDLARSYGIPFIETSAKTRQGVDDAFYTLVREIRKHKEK
IC50 (GP2d cells (KRAS G12D); GP2d),IC50 (SW620 cells (KRAS G12V); [14]),IC50 ([1]; KRAS G12R-GppNHp/RAF1 RBD HTRF),IC50 ([2]; KRAS G12V-GppNHp/RAF1 RBD HTRF),IC50 ([3]; KRAS WT-GppNHp/RAF1 RBD HTRF),IC50 ([4]; KRAS G12D-GppNHp/RAF1 RBD HTRF),SMILES,further results
–,–,–,–,–,–,"CN(C)C(=O)N1CC[C@H](N(C)c2nc(OC[C@@]34CCCN3C[C@H](F)C4)nc3c(F)c(-c4ccc(F)c5sc(N)c(C#N)c45)c(C(F)(F)F)cc23)C1 (atropisomer, axis not shown) [Compound 755]","IC50 [1, 5]: < 0.1 µM; IC50 [2, 6]: 0.1 to 1 µM; IC50 (GP2d cells (KRAS G12D); GP2d, class symbols): < 0.1 µM; IC50 (SW620 cells (KRAS G12V); [7]): < 0.1 µM; IC50 [3, 8]: 0.1 to 1 µM; IC50 [4, 9]: < 0.1 µM"
–,–,–,–,–,–,"CN(c1nc(OC[C@@]23CCCN2C[C@H](F)C3)nc2c(F)c(-c3ccc(F)c4sc(N)c(C#N)c34)c(C(F)(F)F)cc12)[C@]1(CC#N)C[C@@H](O)C1 (atropisomer, axis not shown) [Compound 254]","IC50 [1, 10]: 1 to 10 µM; IC50 [2, 11]: 1 to 10 µM; IC50 (GP2d cells (KRAS G12D)): 0.1 to 1 µM; IC50 (SW620 cells (KRAS G12V); SW620 (KRAS G12V) cells): > 1 µM; IC50 [3, 12]: 0.1 to 1 µM; IC50 [4, 13]: 0.1 to 1 µM"
< 0.1 µM,< 0.1 µM,–,–,–,–,N#Cc1c(N)sc2c(F)ccc(-c3c(C(F)(F)F)cc4c(N5C[C@@H]6C[C@H]5CO6)nc(OC[C@@]56CCCN5C[C@H](F)C6)nc4c3F)c12 [Compound 259],"IC50 [1, 10]: 0.1 to 1 µM; IC50 [2, 11]: 1 to 10 µM; IC50 [3, 12]: 0.1 to 1 µM; IC50 [4, 13]: 0.1 to 1 µM"
< 0.1 µM,< 0.1 µM,–,–,–,–,N#Cc1c(N)sc2c(F)ccc(-c3c(C(F)(F)F)cc4c(N5CC(F)(F)C5)nc(OC[C@@]56CCCN5C[C@H](F)C6)nc4c3F)c12 [Compound 205],"IC50 [1, 10]: 0.1 to 1 µM; IC50 [2, 11]: 0.1 to 1 µM; IC50 [3, 12]: 0.1 to 1 µM; IC50 [4, 13]: 0.1 to 1 µM"
< 0.1 µM,< 0.1 µM,1 to 10 µM,1 to 10 µM,1 to 10 µM,0.1 to 1 µM,N#Cc1c(N)sc2c(F)ccc(-c3c(Cl)cc4c(N5C[C@H]6C[C@@H]5CO6)nc(OC[C@@]56CCCN5C[C@H](F)C6)nc4c3F)c12 [Compound 364],–
–,–,–,–,–,–,"CCN(c1nc(OC[C@@]23CCCN2C[C@H](F)C3)nc2c(F)c(-c3ccc(F)c4sc(N)c(C#N)c34)c(C(F)(F)F)cc12)[C@H]1CCN(C(=O)C2CCN(C(C)=O)CC2)C1 (atropisomer, axis not shown) [Compound 575]","IC50 [1, 5]: < 0.1 µM; IC50 [2, 6]: < 0.1 µM; IC50 (GP2d cells (KRAS G12D); GP2d, class symbols): < 0.1 µM; IC50 (SW620 cells (KRAS G12V); [7]): < 0.1 µM; IC50 [3, 8]: < 0.1 µM; IC50 [4, 9]: < 0.1 µM"
< 0.1 µM,< 0.1 µM,0.1 to 1 µM,0.1 to 1 µM,0.1 to 1 µM,< 0.1 µM,CN(C)C(=O)c1nc2n(n1)CCN(c1nc(OC[C@@]34CCCN3C[C@H](F)C4)nc3c(F)c(-c4ccc(F)c5sc(N)c(C#N)c45)c(C(F)(F)F)cc13)C2 [Compound 356],–
–,–,–,–,–,–,"C[C@@H](c1cccnc1N)N(C)c1nc(OC[C@@]23CCCN2C[C@H](F)C3)nc2c(F)c(-c3ccc(F)c4sc(N)c(C#N)c34)c(C(F)(F)F)cc12 (atropisomer, axis not shown) [Compound 601]","IC50 [1, 5]: 0.1 to 1 µM; IC50 [2, 6]: 0.1 to 1 µM; IC50 (GP2d cells (KRAS G12D); GP2d, class symbols): < 0.1 µM; IC50 (SW620 cells (KRAS G12V); [7]): < 0.1 µM; IC50 [3, 8]: 0.1 to 1 µM; IC50 [4, 9]: 0.1 to 1 µM"
< 0.1 µM,0.1 to 1 µM,1 to 10 µM,1 to 10 µM,1 to 10 µM,1 to 10 µM,N#Cc1c(N)sc2c(F)ccc(-c3c(C(F)(F)F)cc4c(N5C[C@H]6C[C@@H]5[C@@H](O)C6)nc(OC[C@@]56CCCN5C[C@H](F)C6)nc4c3F)c12 [Compound 360],–
0.1 to 1 µM,0.1 to 1 µM,1 to 10 µM,1 to 10 µM,1 to 10 µM,1 to 10 µM,C[C@@H]1[C@H](N(C)c2nc(OC[C@@]34CCCN3C[C@H](F)C4)nc3c(F)c(-c4ccc(F)c5sc(N)c(C#N)c45)c(Cl)cc23)CCN1C(=O)C(C)(C)F [Compound 421],–

SMILES,IC50 (GP2d cells (KRAS G12D); GP2d),IC50 (SW620 cells (KRAS G12V); [14]),IC50 ([1]; KRAS G12R-GppNHp/RAF1 RBD HTRF),IC50 ([2]; KRAS G12V-GppNHp/RAF1 RBD HTRF),IC50 ([3]; KRAS WT-GppNHp/RAF1 RBD HTRF),IC50 ([4]; KRAS G12D-GppNHp/RAF1 RBD HTRF),further results
N#Cc1c(N)sc2c(F)ccc(-c3c(C(F)(F)F)cc4c(N5C6CCC5CS(=O)(=O)C6)nc(OC[C@@]56CCCN5C[C@H](F)C6)nc4c3F)c12 [Compound 320],< 0.1 µM,< 0.1 µM,1 to 10 µM,1 to 10 µM,0.1 to 1 µM,0.1 to 1 µM,–
